The values below come from US8481524B2, “c-MET protein kinase inhibitors” (Vertex Pharmaceuticals Incorporated, priority 2007, dated 2013).

“Also recorded” adds a separate entry of the source.

The assay has as its system c-Met in Snu5 gastric carcinoma cells. Briefly: Inhibition of c-Met activity in Snu5 gastric carcinoma cells (Snu5-AP1-Luc-Pest luciferase signal). It counts as cell-based, human. The following applies: for IC50: Homo sapiens, SNU-5, Snu5-AP1-Luc-Pest cells, 6 hours, Steady Glo luminescence; for activity compared with corresponding analog wherein R5 is hydrogen: Snu5 gastric carcinoma cell assay, comparison of IC50 values. The text has this:
Compounds of the invention were also screened for their ability to inhibit the Luciferase-induced signal in an engineered Snu5 cell line. Snu5 [obtained from American Type Culture Collection (Catalog number CRL-5973)] is a human gastric carcinoma known to overexpress c-Met, which is constitutively active. The cell line was transduced with the retrovirus, pCLPCX, which contains a genetic construct consisting of 6×AP1 promoter response elements and a luciferase gene having a C-terminal PEST sequence (proteolytic signal from mouse ornithine decarboxylase, which reduces the half-life of the luciferase). The constitutively active cMet activates cellular pathways (principally MAP kinase), resulting in AP-1-induced transcription of luciferase-PEST and translation into the final product, the activity of which is quantifiable as a chemiluminescent readout upon the addition of luciferin (Steady-Glo from Promega.). Residual luminescence is strongly correlated to the inhibition of c-Met. A stable cell line was obtained by selecting the new cell line (Snu5-AP1-Luc-Pest) with puromycin. The cells were grown in complete media [Iscove's media (Invitrogen) containing 10% fetal bovine serum (FBS, Hyclone) and penicillin/gentamycin (Invitrogen)]. Compounds of the invention were dissolved in DMSO to make 10 mM initial stock solutions. Serial dilutions in DMSO were then made and transferred to complete medium to make a 10× solution. The Snu5-AP1-Luc-Pest cells were counted and diluted to 200,000-cells/mL solution. The cells (90 μL) were added to each well in a 96-well black with clear bottom plate (Costar). Then 10 μL of the 10× compound solution was added to the cells in triplicate. The plates were incubated in a 37° C./5% CO2 incubator. After 6 hours, 50 μL of the Steady Glo reagent (Promega) was added to each well and placed on a plate shaker for 5 minutes to ensure that the cells were completely lysed. The plate was read on a 1450 Microbeta Liquid Scintillation and Luminescence Counter (Perkin-Elmer). The IC50s were calculated using a 4-parameter fit using the graphing software Prism (GraphPad).

Regarding `Cc1ccc(-n2nnnc2-c2cc(-c3cnn([C@@H]4CCNC4)c3)cnc2N)c(F)c1F` [Compound 1], the IC50 (usually the concentration at which inhibition is half-maximal) lay in the range of 100 to 1000 nM and the “activity compared with corresponding analog wherein R5 is hydrogen” value is reported as “more active”.
For `Cc1ccc(-n2nnnc2-c2cc(-c3cnn([C@@H]4CCCNC4)c3)cnc2N)c(F)c1F` [Compound 2], in that order: no more than 100 nM and “more active”.
For `Cc1ccc(-n2nnnc2-c2cc(-c3cnn(C4CCCNCC4)c3)cnc2N)c(F)c1F` (stereo not drawn) [Compound 3], in that order: no more than 100 nM and “more active”.
The matching figures for `COc1ccc(-n2nnnc2-c2cc(-c3cnn([C@@H]4CCNC4)c3)cnc2N)c(F)c1F` [Compound 4]: no more than 100 nM and “more active”.
As for `Cc1ccc(-n2nnnc2-c2cc(-c3cnn([C@H]4CCCNC4)c3)cnc2N)c(F)c1F` [Compound 5], the IC50 was no more than 100 nM and the “activity compared with corresponding analog wherein R5 is hydrogen” value is listed as “more active”.
As to `COc1ccc(-n2nnnc2-c2cc(-c3cnn([C@H]4CCNC4)c3)cnc2N)c(F)c1F` [Compound 6], the IC50 is no more than 100 nM and the “activity compared with corresponding analog wherein R5 is hydrogen” value was “more active”.
For `Cc1ccc(-n2nnnc2-c2cc(-c3cnn([C@H]4CCNC4)c3)cnc2N)c(F)c1F` [Compound 7], in that order: 100 to 1000 nM and “more active”.
On to `COc1ccc(-n2nnnc2-c2cc(-c3cnn([C@@H]4CCCNC4)c3)cnc2N)c(F)c1F` [Compound 8, 3-(1-(2,3-Difluoro-4-methoxyphenyl)-1H-tetrazol-5-yl)-5-(1-((R)-piperidin-3-yl)-1H-pyrazol-4-yl)pyridin-2-amine], for which the IC50 was no more than 100 nM and the “activity compared with corresponding analog wherein R5 is hydrogen” value was “more active”.
Consider `COc1ccc(-n2nnnc2-c2cc(-c3cnn(C4CCCNCC4)c3)cnc2N)c(F)c1F` (stereo not drawn) [Compound 9], for which the IC50 lay within 100 to 1000 nM.
With `COc1ccc(-n2nnnc2-c2cc(-c3cnn([C@H]4CCCNC4)c3)cnc2N)c(F)c1F` [Compound 10], the IC50 was no more than 100 nM and the “activity compared with corresponding analog wherein R5 is hydrogen” value was “more active”.
The matching figures for `Cc1ccc(-n2nnnc2-c2cc(-c3cnn(C4CCNCC4)c3)cnc2N)c(F)c1F` [Compound 11, 3-(1-(2,3-Difluoro-4-methylphenyl)-1H-tetrazol-5-yl)-5-(1-(piperidin-4-yl)-1H-pyrazol-4-yl)pyridin-2-amine]: 100 to 1000 nM and “more active”.
For `COc1ccc(-n2nnnc2-c2cc(-c3cnn(C4CCNCC4)c3)cnc2N)c(F)c1F` [Compound 12, 3-(1-(2,3-difluoro-4-methoxyphenyl)-1H-tetrazol-5-yl)-5-(1-(piperidin-4-yl)-1H-pyrazol-4-yl)pyridin-2-amine], the IC50 fell in the range of 100 to 1000 nM and the “activity compared with corresponding analog wherein R5 is hydrogen” value is reported as “more active”.
For `Cc1ccc(-n2nnnc2-c2cc(-c3cc4c(s3)CCNCC4)cnc2N)c(F)c1F` [Compound 13, 3-(1-(2,3-Difluoro-4-methylphenyl)-1H-tetrazol-5-yl)-5-(5,6,7,8-tetrahydro-4H-thieno[2,3-d]azepin-2-yl)pyridin-2-amine], in that order: no more than 100 nM and “more active”.
`COc1ccc(-n2nnnc2-c2cc(-c3cc4c(s3)CCNCC4C)cnc2N)c(F)c1F` (stereo not drawn) [Compound 14]: the IC50 was no more than 100 nM and the “activity compared with corresponding analog wherein R5 is hydrogen” value is reported as “more active”.
For `COc1ccc(-n2nnnc2-c2cc(-c3cc4c(s3)CCNCC4)cnc2N)c(F)c1F` [Compound 15], in that order: no more than 100 nM and “more active”.
For the compound `COc1ccc(-n2nnnc2-c2cc(-c3cnn(C4CC5CCC(C4)N5)c3)cnc2N)c(F)c1F` (stereo not drawn) [Compound 16], the IC50 is no more than 100 nM and the “activity compared with corresponding analog wherein R5 is hydrogen” value is reported as “more active”.
Take `COc1ccc(-n2nnnc2-c2cc(-c3cnn(C4CC5CCC(C4)N5)c3)cnc2N)c(F)c1F` (stereo not drawn) [Compound 17]: the “activity compared with corresponding analog wherein R5 is hydrogen” value is on record as “more active”.
`COc1ccc(-n2nnnc2-c2cc(-c3cn(C4CCNCC4)nc3C)cnc2N)c(F)c1F` [Compound 18]: the half-inhibitory concentration (IC50) is no more than 100 nM and the “activity compared with corresponding analog wherein R5 is hydrogen” value is listed as “more active”.
For `CCC1Cc2sc(-c3cnc(N)c(-c4nnnn4-c4ccc(OC)c(F)c4F)c3)cc2CCN1` (stereo not drawn) [Compound 19], in that order: no more than 100 nM and “more active”.
`COc1ccc(-n2nnnc2-c2cc(-c3cc4c(s3)CNCCC4)cnc2N)c(F)c1F` [Compound 20] displayed an IC50 of 100 to 1000 nM.
Consider `COc1ccc(-n2nnnc2-c2cc(-c3cc4c(s3)CCCNC4)cnc2N)c(F)c1F` [Compound 21], for which the IC50 lay within 100 to 1000 nM and the “activity compared with corresponding analog wherein R5 is hydrogen” value was “more active”.
The matching figures for `COc1ccc(-n2nnnc2-c2cc(-c3cc(C)c(C4CCNCC4)s3)cnc2N)c(F)c1F` [Compound 22, 3-(1-(2,3-Difluoro-4-methoxyphenyl)-1H-tetrazol-5-yl)-5-(4-methyl-5-(piperidin-4-yl)thiophen-2-yl)pyridin-2-amine]: no more than 100 nM and “more active”.
On to `CCCOc1ccc(-n2nnnc2-c2cc(-c3cc4c(s3)CCNCC4)cnc2N)c(F)c1F` [Compound 23], for which the IC50 was no more than 100 nM.
On to `Cc1cc(-c2cnc(N)c(-c3nnnn3-c3ccc(C)c(F)c3F)c2)sc1C1CCNCC1` [Compound 24], for which the IC50 is no more than 100 nM and the “activity compared with corresponding analog wherein R5 is hydrogen” value was “more active”.
On to `CCOc1ccc(-n2nnnc2-c2cc(-c3cnn(C4CCNCC4)c3)cnc2N)c(F)c1F` [Compound 25], for which the IC50 was no more than 100 nM.
On the same count and under the same terms, under `CC(C)Oc1ccc(-n2nnnc2-c2cc(-c3cnn(C4CCNCC4)c3)cnc2N)c(F)c1F` [Compound 26] stands no more than 100 nM.
Consider `COc1ccc(-n2nnnc2-c2cc(-c3cc4c(s3)CCNC(C)C4)cnc2N)c(F)c1F` (stereo not drawn) [Compound 27], for which the IC50 is no more than 100 nM and the “activity compared with corresponding analog wherein R5 is hydrogen” value is on record as “more active”.
The matching figures for `Cc1ccc(-n2nnnc2-c2cc(-c3cc4c(s3)CCNC(C)C4)cnc2N)c(F)c1F` (stereo not drawn) [Compound 28]: no more than 100 nM and “more active”.
For `COc1ccc(-n2nnnc2-c2cc(-c3cc4c(s3)CCNCC4(C)C)cnc2N)c(F)c1F` [Compound 29], in that order: no more than 100 nM and “more active”.
For `Cc1ccc(-n2nnnc2-c2cc(-c3cc4c(s3)CCNCC4(C)C)cnc2N)c(F)c1F` [Compound 30], in that order: no more than 100 nM and “more active”.
For the compound `Cc1cc(C2CCNCC2)sc1-c1cnc(N)c(-c2nnnn2-c2ccc(C)c(F)c2F)c1` [Compound 31], the IC50 is 100 to 1000 nM and the “activity compared with corresponding analog wherein R5 is hydrogen” value is reported as “more active; also recorded: the unsubstituted compound has a lower IC50 value”.
For `COc1ccc(-n2nnnc2-c2cc(-c3sc(C4CCNCC4)cc3C)cnc2N)c(F)c1F` [Compound 32], in that order: no more than 100 nM and “more active”.
Compound `CC(C)Oc1ccc(-n2nnnc2-c2cc(-c3cc4c(s3)CCNCC4)cnc2N)c(F)c1F` [Compound 33] returned an IC50 of no more than 100 nM.
On the same count and under the same terms, under `CCCOc1ccc(-n2nnnc2-c2cc(-c3cnn(C4CCNCC4)c3)cnc2N)c(F)c1F` [Compound 34] stands no more than 100 nM; under `COCCOc1ccc(-n2nnnc2-c2cc(-c3cnn(C4CCNCC4)c3)cnc2N)c(F)c1F` [Compound 35], 100 to 1000 nM.
As for `COc1ccc(-n2nnnc2-c2cc(-c3cn(C4CCNCC4)nc3C(F)(F)F)cnc2N)c(F)c1F` [Compound 36], the IC50 is no more than 100 nM and the “activity compared with corresponding analog wherein R5 is hydrogen” value was “more active”.
Compound `COc1cc(F)c(-n2nnnc2-c2cc(-c3cnn(C4CCNCC4)c3)cnc2N)c(F)c1` [Compound 37] came in with a half-maximal inhibitory concentration (IC50) of no more than 100 nM.
Consider `Cc1ccc(-n2nnnc2-c2cc(-c3cnn(C4CCNCC4)c3)cnc2N)c(Cl)c1` [Compound 38], for which the IC50 lay within 100 to 1000 nM.
Turning to `Cc1ccc(-n2nnnc2-c2cc(-c3cc4c(s3)CCNCC4)cnc2N)c(Cl)c1` [Compound 39], the IC50 fell in the range of 100 to 1000 nM.
Still for that read-out and setting: under `Cc1ccc(-n2nnnc2-c2cc(-c3cnn(C4CCNCC4)c3)cnc2N)cc1Cl` [Compound 40] stands greater than 1000 nM.
Still for that read-out and setting: to `Cc1ccc(-n2nnnc2-c2cc(-c3cnn(C4CCNCC4)c3)cnc2N)c(F)c1` [Compound 41] belongs 100 to 1000 nM; to `Cc1ccc(-n2nnnc2-c2cc(-c3cc4c(s3)CCNCC4)cnc2N)c(F)c1` [Compound 42], 100 to 1000 nM.
